Experimental data as given in patent US5554640A, “Use of propanolamine derivatives as selective 5-HT1 antagonists” (Eli Lilly and Company, priority 1995, dated 1996).
pIC50: −log10 of the molar value. “Also recorded” adds a separate entry of the source. Where two headings read alike, the source gives them in different places.

Experiments:
[1] = biological target: T1, serotonin-1A receptor (5-HT1A) (Rattus norvegicus, UniProt P19327); test: biochemical; format: binding, rat (Sprague-Dawley); conditions: for Ratio Beta IC50 / 5-HT1A IC50: selectivity for 5-HT1A over beta receptor, Beta IC50 from 3H-dihydroalprenolol binding
T1 sequence (P19327 1-422): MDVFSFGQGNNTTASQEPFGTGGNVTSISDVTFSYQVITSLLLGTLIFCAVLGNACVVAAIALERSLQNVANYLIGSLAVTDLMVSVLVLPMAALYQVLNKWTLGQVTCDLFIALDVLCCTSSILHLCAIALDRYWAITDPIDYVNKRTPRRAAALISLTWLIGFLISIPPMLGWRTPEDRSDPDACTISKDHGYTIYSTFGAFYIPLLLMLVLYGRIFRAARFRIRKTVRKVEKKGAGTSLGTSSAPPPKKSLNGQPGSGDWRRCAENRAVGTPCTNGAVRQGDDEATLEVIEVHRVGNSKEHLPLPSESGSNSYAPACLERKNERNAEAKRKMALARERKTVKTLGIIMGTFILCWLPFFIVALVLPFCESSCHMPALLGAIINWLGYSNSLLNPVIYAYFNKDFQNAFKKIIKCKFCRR
Protocol: The compounds of this invention were evaluated in the following tests systems.
(§1) Procedure for radioligand receptor assays--Male Sprague-Dawley rats weighing 110-150 g were decapitated and brains were immediately removed. Bovine brains were quickly removed from calf in the slaughterhouse. Cerebral cortices were dissected out at 4° C. and homogenized in 0.32M sucrose. After centrifugation at 1000×g for 10 minutes and then 17,000×g for 20 minutes, a crude synaptosomal fraction was sedimented. The pellet was suspended in 100 volumes of 50 mM tris-HCl buffered at pH 7.4, incubated at 37° C. for 10 minutes, and centrifuged at 50,000×g for 10 minutes. The process was repeated and the final pellet was suspended in ice-chilled 50 mM tris-HCl buffered at pH 7.4.
Binding of ^3 H-8-hydroxy-2- (di-n-propylamino) tetralin(3H-80HDPAT) to serotonin-1A receptor was performed according to the method described by Wong et al., J. Neural Transm. , 71, 207 (1988). Cortical membranes (300 μg protein) isolated from rat brain were incubated at 28 C for 30 minutes in 2 ml of medium containing 50 mM tris-HCl buffered at pH 7.4; 10 μM pargyline; 0.6 mM ascorbic acid; 5 mM calcium chloride; 0.4 nM 3H-8OHDPAT; and various concentrations of test compound. Binding was terminated by filtering samples under reduced pressure through glass fiber (GFB) filters. The filters were washed twice with 5 ml of ice cold buffer and placed in scintillation vials with 10 ml of PCS (Amlersham/Searle) scintillation fluid. Radioactivity was measured with a liquid scintillation spectrometer. Specific binding of 3H-80HDPAT is defined as the difference of radioactivity bound in the absence and in the presence of 10 μM spiperone.

[2] = biological target: β-adrenergic receptors; test: Binding of 3H-dihydroalprenolol to β-adrenergic receptors, calf brain cortical membranes; set-up: species or system bovine (calf); conditions: inhibition of 2 nM 3H-dihydroalprenolol binding, 20° C, 20 minutes, pH 7.4, read-out: Beta IC50
Protocol: as §1, with “The compounds of this invention were evaluated in the following tests systems. Procedure” for “Procedure”, “7.4. […] Cortical membranes (500 μg protein) of calf brain were incubated at 20° C. for 20 minutes in 2 ml of medium containing […] tris-HCl buffered at pH 7.4; 2 nM 3H-dihydroalprenolol; and various concentrations of test compound. Binding was terminated by filtering samples through glass fiber (GFC) filters. […] Other conditions were as described for 3[…] binding.” for “7.4.”

[3] = test system: 5-HT1A and 5-HT1B receptors; conditions: background knowledge; cited from earlier work
[4] = inhibition of 0.4 nM 3H-8OHDPAT binding, rat cortical membranes, 28 C, 30 minutes, pH 7.4

| Compound | pIC50 [1, 4] | Ratio Beta IC50 / 5-HT1A IC50 [1] | pIC50 [2] | pIC50 [1] | antagonism of 5-HT1 receptors relative to β-block (in words) [3] |
| --- | --- | --- | --- | --- | --- |
| CC#CC(C)(C)NCC(O)COc1cccc2ccccc12 (stereo not drawn) [C(CH3)2 CCCH3] | 7.42 | 10.5 | 6.40 |  |  |
| C#CC(C)NCC(O)COc1cccc2ccccc12 (stereo not drawn) [CH(CH3)CCH] | 6.74 | 7.1 | 5.90 |  |  |
| OC(CNC1CCCCC1)COc1cccc2ccccc12 (stereo not drawn) [(cyclohexyl)] | 7.81 | 40.4 | 6.21 |  |  |
| CC1CCCCC1NCC(O)COc1cccc2ccccc12 (stereo not drawn) [(2-methylcyclohexyl)] | 7.48 | 5.2 | 6.76 |  |  |
| CCCC(C)(C)NCC(O)COc1ccccc1C1CCCC1.O=C(O)C(=O)O (stereo not drawn) [CH(CH3)2 CH2 CH2 CH3, 1-(2-Cyclopentylphenoxy)-3-(1,1-dimethylbutylamino) -2-propanol ethanedioate] |  | 2.5 | 7.80 | 8.19 |  |
| O=C(O)/C=C\C(=O)O.OC(CNC1CCCCC1)COc1cccc2[nH]ccc12 (stereo not drawn) [Cyclohexyl, 1-(4-Indolyloxy)-3-(cyclohexylamino)-2-propanol maleate] | 7.99 | 5.4 | 7.25 |  |  |
| CC(C)(C)C(C)(C)NCC(O)COc1cccc2ccccc12 (stereo not drawn) [C(CH3)2 C(CH3)3] | 7.77 | 15.2 | 6.65 |  |  |
| OC(CN[C@H]1CC[C@@H](c2ccccc2)CC1)COc1cccc2ccccc12 (stereo partly drawn) [(Z-4-phenylcyclohexyl)] | 7.47 | 13 | 6.35 |  |  |
| OC(CN[C@H]1CC[C@H](c2ccccc2)CC1)COc1cccc2ccccc12 (stereo partly drawn) [(E-4-phenylcyclohexyl)] | < 6.00 | < 0.26 | 6.58 |  |  |
| O=C(O)C(=O)O.OC(CNC1CCCCCC1)COc1ccccc1C1CCCC1 (stereo not drawn) [cycloheptyl, 1-(2-Cyclopentylphenoxy)-3-(cycloheptylamino) 2-propanol ethanedioate] |  | 16 | 7.32 | 8.52 |  |
| CCCCNCC(O)COc1cccc2ccccc12 (stereo not drawn) [CH2 CH2 CH2 CH3] | 7.43 | 3.4 | 6.91 |  |  |
| CC(C)CNCC(O)COc1cccc2ccccc12 (stereo not drawn) [CH2 CH(CH3)2] | 7.14 | 9.4 | 6.17 |  |  |
| CCCC(C)(C)NCC(O)COc1cccc2ccccc12 (stereo not drawn) [C(CH3)2 CH2 CH2 CH3] | 7.39 | 2.4 | 7.01 |  |  |
| C#CC(C)(C)NCC(O)COc1cccc2ccccc12 (stereo not drawn) [C(CH3)2 CCH] | 7.06 | 15.4 | 5.87 |  |  |
| COCC(C)NCC(O)COc1cccc2ccccc12 (stereo not drawn) [CH(CH3)CH2 OCH3] | 6.83 |  | 7.19 |  |  |
| CCC(C)(C)NCC(O)COc1cccc2ccccc12 (stereo not drawn) [C(CH3)2 CH2 CH3] | 7.28 | 20 | 5.98 |  |  |
| CCC(C)NCC(O)COc1cccc2ccccc12 (stereo not drawn) [CH(CH3)CH2 CH3] | 7.14 | 1.4 | 6.98 |  |  |
| O=C(O)C(=O)O.OC(CNC1CCCCCCC1)COc1ccccc1C1CCCC1 (stereo not drawn) [cyclooctyl, 1-(2-Cyclopentylphenoxy) -3-(cyclooctylamino) 2-propanol ethanedioate] |  | > 200 | < 6.00 | 8.30 |  |
| OC(CNC1CCCC1)COc1cccc2ccccc12 (stereo not drawn) [(cyclopentyl)] | 7.31 | 2.8 | 6.86 |  |  |
| C=CC(C)(C)NCC(O)COc1cccc2ccccc12 (stereo not drawn) [C(CH3)2 CHCH2] | 7.00 | 1.24 | 6.91 |  |  |
| CC(C)(C)NCC(O)COc1cccc2ccccc12 (stereo not drawn) [C(CH3)3] | 7.11 | 1.3 | 7.01 |  |  |
| OC(CNC1CCCC1)COc1ccccc1C1CCCC1 (stereo not drawn) [cyclopentyl] | 8.30 | 1.4 | 8.15 |  |  |
| O=C(O)C(=O)O.OC(CNC1CCCCCCC1)COc1cccc2ccccc12 (stereo not drawn) [(cyclooctyl), 1-(1-Naphthalenoxy)-3-(cyclooctylamino) -2-propanol ethanedioate] |  | 22.2 | 6.00 | 7.35 |  |
| O=C(O)C(=O)O.OC(CNC1CCCCCC1)COc1cccc2ccccc12 (stereo not drawn) [(cycloheptyl), 1-(1-Naphthalenoxy) -3-(cycloheptylamino) -2-propanol ethanedioate] |  | 99 | 5.64 | 7.64 |  |
| CCCCCNCC(O)COc1cccc2ccccc12 (stereo not drawn) [CH2 CH2 CH2 CH2 CH3] | 7.63 | 7.9 | 6.73 |  |  |
| CC(C)NCC(O)COc1cccc2[nH]ccc12 (stereo not drawn) [pindolol] |  |  |  |  | at concentrations far in excess of those shown to block the β-receptor; also recorded: not selective agents for the serotonin receptor due to their β-blocking activities |
| OC(CNCCc1ccccc1)COc1cccc2ccccc12 (stereo not drawn) [CH2 CH2 C6 H5] | 7.20 | 4.8 | 6.50 |  |  |
